We go through seven molecules from patent US8859615B2, “Compounds, compositions and methods for reducing toxicity and treating or preventing diseases” (priority 2008, dated 2014).

Like-named read-outs stand apart in the source and are kept apart here.

The subject of data set [1] is human mammary carcinoma MX-1 xenografts. The following applies: nude, mouse, in vivo.
In data set [2] the test system is CCRF-CEM human T-cell acute lymphoblastic leukemia cells. Nature of the data set: In vitro cytotoxicity against CCRF-CEM (XTT / CCK-8 tetrazolium assay, 72 hr). The following applies: for IC50: Homo sapiens, CCRF-CEM.
Data set [3] concerns CCRF-CEM/VBL100 vinblastine-resistant cells. In words: In vitro cytotoxicity against vinblastine-resistant CCRF-CEM subline. It counts as cell-based, human. The following applies: for IC50: Homo sapiens, CCRF-CEM, 72 h, CCK-8, 72-hr incubation, read-out: IC50 CCRF-CEM/Vinblastine. On the procedure: The cytotoxicity IC50 of each compound was measured with the XTT assay using the 2,3-bis(2-methoxy-4-nitro-5-sulfophenyl)-5-[(phenylamino)carbonyl]-2H-tetrazolium hydroxide (XTT) microculture method as described in Scudiero et al., Cancer Res., 48:4827 (1988), the contents of which are hereby incorporated by reference in their entirety. The CCK-8 assay is a cell counting kit-8 (CCK-8) tetrazolium assay using a 96-well microplate (Dojindo Molecular Technologies, Inc., Rockville, Md.) (M. Ishiyama et al., Biol. Pharm. Bull. 19: 1518, 1996). Absorbance was measured by Powerwave a XS microplate spectrophotometer. This method described is considered a general method in vitro cytotoxicity studies.
(§1) The data in Tables 2X, 3A-E, 4, 5, and 6 were obtained using the cell counting kit-8 (CCK-8) tetrazolium assay in a 96-well microplate. Five to seven concentrations of each compound in triplicate were used, and the IC50 values were determined by CompuSyn software automation (Chou T C. and Martin N. ComboSyn, Inc., 2006) based on the median-effect equation and plot (Chou T C. J. Theor. Biol. 59:235-276, 1976; Chou T C. Pharmacol. Rev. 58: 621-681, 2006). […] The r value defines the correlation coefficient of the median-effect plot which signifies the conformity to the mass-action law principle (Chou T C. J. Theor. Biol. 59:235-276, 1976; Chou T C. Pharmacol. Rev. 58:621-681, 2006). These parameters were determined by CompuSyn simulation (available at http://www.combosyn.com).
CCRF-CEM human T-cell acute lymphoblastic leukemia cells and the corresponding vinblastine-resistant cells (CCRF-CEM/VBL100) were cultured at an initial density of 5×10^4 cells per milliliter. The cultured cells were maintained in a 5% CO2-humidified atmosphere at 37° C. in RPMI medium 1640 (GIBCO/BRL) containing penicillin (100 units/mL), streptomycin (100 μg/mL, GIBCO/BRL), and 10% heat-inactivated fetal bovine serum. The cytotoxicity of each Compound of the invention was measured using the 2,3-bis(2-methoxy-4-nitro-5-sulfophenyl)-5-[(phenylamino)carbonyl]-2H-tetrazolium hydroxide (XTT) microculture method as described in Scudiero et al., Cancer Res., 48:4827 (1988), the contents of which are hereby incorporated by reference in their entirety.
(§2) Absorbance was measured by Powerwave XS microplate spectrophotometer.

Another data set relates to HCT-116 colon carcinoma. In words: Cytotoxicity against solid tumor cells, CCK-8, 72 hrs (Table 4). It counts as cell-based. The following applies: Homo sapiens. On the procedure:
(§3) Compounds are also evaluated against A-549 lung carcinoma and SK-OV-3 ovarian adenocarcinoma cell lines using the methodology as for Table 3. The potency order for the compounds may vary in different tumor cell lines. […] Absorbance was measured using a Powerwave XS microplate spectrophotometer.

A further data set concerns MX-1 mammary carcinoma. The description is as above. The following applies: Homo sapiens. It counts as cell-based. On the procedure: as §3
The next data set concerns A-549 lung carcinoma. In words: Cytotoxicity against solid tumor cells (Table 4). The following applies: Homo sapiens, A549, CCK-8, 72 hrs. In kind it is cell-based. The method, then:
as §3

The subject of data set [4] is SK-OV-3 ovarian adenocarcinoma. Nature of the data set: Cytotoxicity against solid tumor cells (Table 4). In kind it is cell-based. The following applies: Homo sapiens, CCK-8, 72 hrs. On the procedure: as §3
The subject of the next data set is human PBMC lymphocytes. Nature of the data set: DNA synthesis ([3H]thymidine incorporation) in human PBMC lymphocytes (FIG. 8). It counts as cell-based. An excerpt: FIG. 8 show the effects of PHA and different concentrations of compounds of the invention, at different time points, on the proliferation of a culture of human lymphocytes as measured by DNA synthesis through incorporation of radiolabeled thymidine into the DNA.
The main principle and method of experiments for human PBMC lymphocytes and for mouse splenocytes stimulations were the same, since both measure immunological cell stimulation by PHA, PXT and compounds of the invention. Both the lymphocyte and the splenocyte assays measure the ^3H-dThd tracer as an indication of DNA synthesis. For PBMC lymphocytes (FIGS. 9A-9G), the experimental methods are those for splenocytes disclosed in Example 24 (FIGS. 11A-11F; FIGS. 12A-12E), except 0.282×10^6 PBMC lymphocyte cells in 198.5 μl was used, and the experimental incubation time was extended to 120 hr.
Briefly, to generate the data in Tables 8A and 8B, the compounds were tested in a [^3H] thymidine uptake experiment using PBMC human lymphocytes obtained from the New York Blood Center. PBMC human lymphocytes were exposed to compounds at 0.03, 0.1, 0.3, and 1.0 μM for 24 hours, and examined for increased [^3H] thymidine uptake. Human lymphocytes were also exposed to compounds for an extended time, e.g., 48 hrs and 72 hrs, instead of 24 hrs, in the [^3H] thymidine uptake assay, and examined to determine the extent of increased [^3H] thymidine uptake to determine if extended exposure will further increase the immune-enhancing effects of the compounds. Increased [^3H] thymidine uptake is interpreted as increased DNA synthesis, which indicates cell growth and division. In the case of immune system cells, this should result in an immune-enhancing effect. The compounds are compared by their IC50 values and/or their effect on [^3H] thymidine uptake at a given concentration and/or time point.

The test system of data set [5] is human lymphoblastic leukemic T-cell growth. In words: Cytotoxic activity relative to stability during storage at −20° C. in DMSO (Table 10). In kind it is cell-based. Conditions: for IC50: Homo sapiens, CCRF-CEM, 72 h, Table 10, XTT, 72 hr. The source says:
Without wishing to be bound by theory, the oxidized versions may be active metabolites. This theory provides an explanation of the delayed onset of therapeutic effects seen in the figures herein. The oxidized compounds may be active agents that are formed slowly upon metabolic oxidation. […] The active metabolites may explain the biphasic pharmacological properties of panaxytriol or Compound D that have been observed (FIGS. 9B, C, D; FIGS. 11D, E, F, and FIGS. 12D, E). […] Induction of the phase 2 enzymes may slow oxidation of the compounds (Ng et al., Tetrahedron Letters. 49: 7178-7179 (2008)).
(Tetrazolium dyes change colour on reduction, which living cells bring about.)

For data set [6], the system named is human mammary carcinoma MX-1 xenograft. In words: Therapeutic effect and body weight in nude mice bearing MX-1 xenograft, single agents.
Protocol: FIGS. 1A and 1B show the therapeutic, anti-cancer effects of various dosage regimens of panaxytriol and Compound (A), respectively, given by i.v. injection in nude mice bearing human mammary carcinoma MX-1 xenograft tumors, which is an in vivo model for breast cancer. […] The compounds were administered starting on day 8.
An in vivo assay uses male athymic nude mice bearing the nu/nu gene (6 weeks of age or older, weighing between 20 and 22 g, obtainable from NCl, Frederick, Md.) into which one or more human tumor xenografts are been implanted.
Nude mice having human mammary carcinoma xenograft MX-1 were treated with panaxytriol or Compound (A) at various dosages through the slow i.v. infusion protocol by Chou et al. (Chou, T. C., et al, Proc. Natl. Acad. Sci. U.S.A. 95: 15798 (1998), the contents of which are herein incorporated by reference in their entirety).
Data set [7] deals with CCRF-CEM subline resistant to TAXOL. In words: In vitro cytotoxicity against TAXOL-resistant CCRF-CEM subline. In kind it is cell-based, human. The following applies: Homo sapiens, CCRF-CEM; Table 3D; CCK-8, 72-hr incubation; read-out: IC50 CCRF-CEM/TAXOL. On the procedure:
as §1, §2

For data set [8] the following is noted: mouse, in vivo. The method, then:
The experimental procedure for FIG. 14 was carried out similarly to that in FIG. 1. * means P<0.1 and ** means P<0.05. Body weight was calculated as described for FIGS. 1 and 4-7.
The experiments were performed as indicated for FIG. 14, with Compound (K) being administered orally. Compound K was administered on the days indicated by the arrows at the top of the graph, and paclitaxel was administered on the days indicated by the arrows on the bottom of the graph. Body weight was calculated as described for FIGS. 1, 4-7, 14 and 15. * means P<0.1 and ** means P<0.05.

Data set [9] deals with quinone reductase (NQO1) in Hepa 1c1c7 murine hepatoma cells. The following applies: for comparison; cited from earlier work.
In data set [10] the test system is human colon carcinoma HCT-116 xenografts. In words: Compound D with Iso-Oxazole-Fludelone or Isodehydelone in nude mice bearing HCT-116 xenografts. The following applies: FIG. 15; Isodehydelone 6 hr-iv infusion, with or without oral Compound (D); n=7.
[11] abbreviates: 72 h, read-out: IC50 CCRF-CEM, Table 3D, CCK-8, 72-hr incubation.
The mark [12] stands for this setting: read-out: IC50 (in μM), cytotoxic potency against cancer cell line growth in vitro, Table 3C, cell line not given.

As to `O=c1[nH]cc(F)c(=O)[nH]1` [Compound 5FU, 5-fluoro-uracil], in [1], the mice died is 5/8.
Turning to `C=C[C@@H](O)C#CC#CC[C@H]1OC(C)(C)O[C@@H]1CCCCCCC` [Compound (A)], the “anti-cancer activity in the in vitro cytotoxicity assay” value in [2] is reported as “active against cancer”. In addition, the IC50 in data set [2] (setting [11]) was 0.803 µM; in data set [3] (Table 3D) it was 1120 nM; with HCT-116 colon carcinoma, 1280 nM; with MX-1 mammary carcinoma, 1920 nM; in the data set with A-549 lung carcinoma, 3950 nM; in data set [4], 3000 nM. Further, the IC50 in data set [5] (Aug. 22, 2003 (Stored), same solution kept at −20° C. in DMSO, read-out: IC50 in μM CCRF-CEM) stood at 2.12 µM; in [5] (Aug. 22, 2003 (Stored), same solution kept at −20° C. in DMSO, read-out: IC50 in μM CCRF-CEM/VBL) it was 2.37 µM; in data set [5] (Jul. 25, 2003 (Fresh), read-out: IC50 in μM CCRF-CEM), 1.21 ± 0.03 µM; in data set [5] (Jul. 25, 2003 (Fresh), read-out: IC50 in μM CCRF-CEM/VBL) it was 1.22 ± 0.15 µM. Also, the “cross-resistance to TAXOL or vinblastine” value in data set [3] (TAXOL- or vinblastine-resistant (MDR) sublines) was “do not appear to be cross-resistant to TAXOL or vinblastine”. Moreover, the “fold resistance in brackets (IC50 CCRF-CEM/VBL vs CCRF-CEM)” value in [3] (Table 3) is listed as 1.22 x. The “fold resistance (IC50 CCRF-CEM/VBL vs parent CCRF-CEM)” value in data set [3] (Table 3A) is given as 1.4 fold. In data set [3] (Table 3D, given as x or -fold), the “fold of cross-resistance (CCRF-CEM/Vinblastine vs parent cell line)” value is 1.4 fold. Also, the “time of maximal stimulation of lymphocyte” value in the data set on human PBMC lymphocytes came to 120 h. For the same molecule, in [6] (Day 24, i.v. injection Q2D, escalating doses from day 8, FIGS. 1A, 1B), the “tumor suppression compared to the control tumor size” value was determined as 47.7%. The “antitumor effects against MX-1 xenografts” value in data set [6] (mouse, in vivo) is “antitumor effects”. The “level inhibiting tumor growth (as low as)” value in data set [6] (mouse, in vivo) was determined as 10 mg/kg.
In the case of `CCCCCCC[C@H]1OC(C)(C)O[C@@H]1CC#CC#CC(=O)CC` [Compound (J)], the IC50 in data set [2] (setting [11]) came to 0.83 ± 0.26 µM; in data set [2] (setting [12]), 0.83 µM; in data set [3] (Table 3D), 1190 nM; in [7], 1720 nM; with HCT-116 colon carcinoma it was 1090 nM; in the data set on MX-1 mammary carcinoma it was 1470 nM. Moreover, the IC50 was 12600 nM with A-549 lung carcinoma and 13000 nM in data set [4].
As to `CCCCCCC[C@H]1OC(C)(C)O[C@@H]1CC#CC#C[C@@H](O)CC` [Compound (K)], the IC50 in [2] (setting [11]) is 2.03 ± 0.13 µM; in data set [2] (setting [12]), 2.03 µM; in data set [3] (Table 3D), 3300 nM; in data set [7], 3570 nM; in the data set with HCT-116 colon carcinoma, 3170 nM; in the data set with MX-1 mammary carcinoma, 3440 nM. Also, the IC50 in the data set with A-549 lung carcinoma came to 1020 nM; in [4], 4030 nM. Besides, the “stability (shelf life)” value in data set [5] (compared with Compound D) is given as “more stable than Compound D”. Further, the “reduction of paclitaxel-induced general toxicity and neurotoxicity compared with Compound D” value in data set [8] is given as “superior to Compound D”. The “effect of oral administration on paclitaxel toxicity” value in data set [8] (po) is “orally effective in Reducing the Toxicity of paclitaxel and improving recovery after treatment”.
Take `C=Cc1c(C)c2cc3nc(c4c5[n-]c(cc6nc(cc1[n-]2)C(C)=C6CC)c(C)c5C(=O)[C@@H]4C(=O)OC)[C@@H](CCC(=O)OC/C=C(\C)CCC[C@H](C)CCC[C@H](C)CCCC(C)C)[C@@H]3C.[Mg+2]` [chlorophyll a]: in data set [9], the “reported CD value” was 250 µM and the reported inducer potency is given as 24,600 U/g.
For the molecule `C[S+]([O-])CCCCN=C=S` (centres unmarked) [sulforaphane], in data set [9], the “reported CD value” was 0.2 µM and the reported inducer potency is recorded as 188,000,000 U/g.
As for “iso-oxazole-dehydelone (17-isooxazole-dehydelone) [isodehydelone]”, in data set [10], the mice died result is reported as “Two”.
